IC50 data for seven compounds are collected here from patent US9340590B2 (priority 2011, dated 2016).

pIC50: −log10 of the molar value. Read-outs that look alike come from different tables or passages of the source. Positions of bridges follow the written chain, without caps; N, C: chain ends. Residues, ends and D or L forms follow the SMILES beside them.

One assay deals with hNav1.3 (Homo sapiens, UniProt Q9NY46). Briefly: cell-based. The conditions noted are these: IonWorks Quattro, read-out: IWQ Use Nav1.3. Background: The patch-clamp technique gives a direct electrical read-out from membranes.
Chain of hNav1.3 (Q9NY46 whole entry, looked up): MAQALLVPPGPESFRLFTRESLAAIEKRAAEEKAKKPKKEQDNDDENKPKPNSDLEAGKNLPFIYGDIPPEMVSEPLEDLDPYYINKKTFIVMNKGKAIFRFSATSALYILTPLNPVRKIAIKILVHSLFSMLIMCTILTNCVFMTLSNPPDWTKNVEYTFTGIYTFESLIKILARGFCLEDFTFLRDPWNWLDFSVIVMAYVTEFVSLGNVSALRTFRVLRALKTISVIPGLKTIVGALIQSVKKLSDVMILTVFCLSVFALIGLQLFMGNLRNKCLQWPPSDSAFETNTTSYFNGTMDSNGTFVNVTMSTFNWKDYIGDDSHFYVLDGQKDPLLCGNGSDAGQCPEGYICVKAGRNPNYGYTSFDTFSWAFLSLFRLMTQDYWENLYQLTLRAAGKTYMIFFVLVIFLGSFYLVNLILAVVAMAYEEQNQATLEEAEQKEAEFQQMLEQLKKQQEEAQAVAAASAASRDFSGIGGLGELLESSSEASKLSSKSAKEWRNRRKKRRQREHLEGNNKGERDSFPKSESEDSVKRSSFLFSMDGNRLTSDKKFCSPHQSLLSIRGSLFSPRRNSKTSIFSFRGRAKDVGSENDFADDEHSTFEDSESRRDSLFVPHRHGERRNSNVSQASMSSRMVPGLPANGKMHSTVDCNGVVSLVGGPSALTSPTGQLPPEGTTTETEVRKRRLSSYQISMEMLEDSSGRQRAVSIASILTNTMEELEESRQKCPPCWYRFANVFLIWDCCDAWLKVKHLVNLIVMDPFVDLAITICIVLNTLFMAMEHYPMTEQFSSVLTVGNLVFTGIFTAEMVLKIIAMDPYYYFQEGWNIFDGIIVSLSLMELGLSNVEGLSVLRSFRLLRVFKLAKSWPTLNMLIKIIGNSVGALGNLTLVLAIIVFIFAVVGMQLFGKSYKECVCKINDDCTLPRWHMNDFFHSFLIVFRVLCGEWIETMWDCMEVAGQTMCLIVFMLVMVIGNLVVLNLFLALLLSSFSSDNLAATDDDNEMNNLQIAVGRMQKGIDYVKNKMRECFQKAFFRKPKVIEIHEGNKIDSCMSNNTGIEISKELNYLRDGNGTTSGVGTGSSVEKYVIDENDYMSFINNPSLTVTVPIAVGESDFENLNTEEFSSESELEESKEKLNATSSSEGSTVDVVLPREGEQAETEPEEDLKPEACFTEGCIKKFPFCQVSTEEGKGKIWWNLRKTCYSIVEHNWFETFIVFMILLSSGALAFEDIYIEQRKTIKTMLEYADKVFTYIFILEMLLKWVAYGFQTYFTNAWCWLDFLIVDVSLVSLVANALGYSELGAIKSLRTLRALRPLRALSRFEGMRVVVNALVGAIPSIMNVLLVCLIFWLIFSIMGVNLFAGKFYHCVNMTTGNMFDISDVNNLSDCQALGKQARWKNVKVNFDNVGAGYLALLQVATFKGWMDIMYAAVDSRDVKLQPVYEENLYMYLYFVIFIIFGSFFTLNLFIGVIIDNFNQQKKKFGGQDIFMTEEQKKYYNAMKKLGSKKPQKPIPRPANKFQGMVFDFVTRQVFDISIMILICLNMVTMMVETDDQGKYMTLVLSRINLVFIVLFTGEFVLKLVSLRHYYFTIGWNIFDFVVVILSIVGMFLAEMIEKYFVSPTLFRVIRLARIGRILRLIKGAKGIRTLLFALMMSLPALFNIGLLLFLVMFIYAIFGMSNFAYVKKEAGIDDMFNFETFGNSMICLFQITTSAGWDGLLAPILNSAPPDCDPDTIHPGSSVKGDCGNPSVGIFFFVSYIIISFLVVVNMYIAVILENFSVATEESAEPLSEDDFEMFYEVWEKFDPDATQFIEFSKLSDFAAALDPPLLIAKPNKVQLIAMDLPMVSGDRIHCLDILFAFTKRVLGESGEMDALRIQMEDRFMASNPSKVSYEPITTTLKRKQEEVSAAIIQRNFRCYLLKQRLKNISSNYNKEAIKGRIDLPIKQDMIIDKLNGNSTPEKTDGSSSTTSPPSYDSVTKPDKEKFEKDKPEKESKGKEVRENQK
A further assay has as its target hNav1.5 (Homo sapiens, UniProt Q14524). Put plainly: cell-based. As to conditions: IonWorks Quattro, read-out: IWQ Use Nav1.5.
Where [1] appears, read: clamped to −110 mV, depolarized to −10 mV, 5 min after compound, n=2.

Chain of hNav1.5 (Q14524 whole entry, looked up): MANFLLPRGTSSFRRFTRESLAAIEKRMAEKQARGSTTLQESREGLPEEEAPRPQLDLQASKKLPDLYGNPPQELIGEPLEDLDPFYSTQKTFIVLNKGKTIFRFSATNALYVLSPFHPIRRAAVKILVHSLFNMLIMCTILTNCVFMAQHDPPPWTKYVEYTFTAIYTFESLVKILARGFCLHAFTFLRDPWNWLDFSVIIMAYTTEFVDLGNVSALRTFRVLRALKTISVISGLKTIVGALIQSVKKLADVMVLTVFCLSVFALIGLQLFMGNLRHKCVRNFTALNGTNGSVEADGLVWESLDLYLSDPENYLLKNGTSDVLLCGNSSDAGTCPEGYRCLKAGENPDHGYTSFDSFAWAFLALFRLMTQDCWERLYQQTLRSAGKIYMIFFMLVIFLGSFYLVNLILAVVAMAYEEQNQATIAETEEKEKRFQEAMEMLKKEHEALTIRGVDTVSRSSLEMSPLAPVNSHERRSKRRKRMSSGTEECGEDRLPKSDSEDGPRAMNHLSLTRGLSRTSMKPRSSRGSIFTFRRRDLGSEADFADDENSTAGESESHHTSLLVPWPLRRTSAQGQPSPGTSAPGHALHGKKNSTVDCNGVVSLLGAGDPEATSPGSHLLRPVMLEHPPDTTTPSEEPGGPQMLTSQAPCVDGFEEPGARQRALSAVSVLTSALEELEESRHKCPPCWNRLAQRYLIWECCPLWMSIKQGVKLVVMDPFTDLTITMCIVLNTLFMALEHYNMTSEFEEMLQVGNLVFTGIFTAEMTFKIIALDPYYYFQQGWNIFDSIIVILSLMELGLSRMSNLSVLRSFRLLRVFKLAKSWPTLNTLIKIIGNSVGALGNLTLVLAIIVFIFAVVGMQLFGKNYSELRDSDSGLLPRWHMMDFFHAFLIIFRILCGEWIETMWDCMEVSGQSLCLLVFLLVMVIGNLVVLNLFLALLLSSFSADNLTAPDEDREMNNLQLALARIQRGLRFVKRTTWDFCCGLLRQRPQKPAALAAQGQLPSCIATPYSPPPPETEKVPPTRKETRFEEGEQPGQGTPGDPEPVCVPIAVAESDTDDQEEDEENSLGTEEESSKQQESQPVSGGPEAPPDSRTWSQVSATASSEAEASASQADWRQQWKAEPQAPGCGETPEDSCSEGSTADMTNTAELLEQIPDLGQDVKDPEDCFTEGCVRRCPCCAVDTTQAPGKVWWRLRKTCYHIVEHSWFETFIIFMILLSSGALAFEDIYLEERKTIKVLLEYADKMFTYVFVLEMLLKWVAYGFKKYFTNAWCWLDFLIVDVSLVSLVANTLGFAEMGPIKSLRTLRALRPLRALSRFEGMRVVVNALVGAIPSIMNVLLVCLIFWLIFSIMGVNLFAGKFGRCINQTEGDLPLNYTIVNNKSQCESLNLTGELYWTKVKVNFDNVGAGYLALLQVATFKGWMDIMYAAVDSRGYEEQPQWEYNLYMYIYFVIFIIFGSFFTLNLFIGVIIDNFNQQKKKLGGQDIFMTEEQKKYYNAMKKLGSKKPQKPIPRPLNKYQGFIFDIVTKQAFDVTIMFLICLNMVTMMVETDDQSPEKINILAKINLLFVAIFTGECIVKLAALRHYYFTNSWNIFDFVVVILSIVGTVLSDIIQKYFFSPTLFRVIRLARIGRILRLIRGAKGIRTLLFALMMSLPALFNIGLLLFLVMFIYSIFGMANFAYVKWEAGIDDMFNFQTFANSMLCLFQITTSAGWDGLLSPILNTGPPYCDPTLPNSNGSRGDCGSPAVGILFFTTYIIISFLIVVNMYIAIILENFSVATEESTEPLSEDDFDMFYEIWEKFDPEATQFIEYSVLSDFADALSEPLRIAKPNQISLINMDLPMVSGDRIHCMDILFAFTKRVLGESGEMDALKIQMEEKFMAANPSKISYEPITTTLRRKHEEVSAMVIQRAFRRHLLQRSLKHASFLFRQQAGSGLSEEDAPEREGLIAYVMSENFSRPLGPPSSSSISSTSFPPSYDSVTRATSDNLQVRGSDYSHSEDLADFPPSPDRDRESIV

Turning to `CC[C@H](C)[C@@H]1NC(=O)[C@@H]2CSSC[C@@H]3NC(=O)[C@H](C(C)C)NC(=O)[C@H](CC(C)C)NC(=O)[C@H](CC(N)=O)NC(=O)[C@@H]4CCCN4C(=O)[C@H](CCCNC(=N)N)NC(=O)[C@H](CSSC[C@H](NC(=O)[C@@H](N)CC(=O)O)C(=O)N[C@@H](CC(C)C)C(=O)NCC(=O)N[C@@H](Cc4ccccc4)C(=O)N[C@@H](CCSC)C(=O)N[C@@H](C)C(=O)N[C@@H](CCCCN)C(=O)N2)NC(=O)[C@H](CSSC[C@@H](C(=O)N[C@@H](CCCCN)C(=O)N[C@@H](Cc2ccc(O)cc2)C(=O)N[C@H](C(=O)N[C@@H](Cc2ccccc2)C(N)=O)C(C)C)NC(=O)[C@H](Cc2c[nH]c4ccccc24)NC(=O)[C@H](CCCCN)NC(=O)[C@H](Cc2cnc[nH]2)NC(=O)[C@H]([C@@H](C)O)NC(=O)[C@H](CCCNC(=N)N)NC(=O)[C@H](CO)NC3=O)NC(=O)[C@H](CCCCN)NC(=O)[C@H](CC(=O)O)NC(=O)[C@H](CC(N)=O)NC(=O)[C@H](CC(=O)O)NC(=O)[C@@H]2CCCN2C1=O` [[Ala7]GpTx-1(1-34)] (H-DCLGFMAKCIPDNDKCCRPNLVCSRTHKWCKYVF-NH2; disulfide 2-17, 9-23, 16-30), the pIC50 is 6.08 at hNav1.3 (use-dependent block, hNav1.3) and 4.67 at hNav1.5 (use-dependent block, hNav1.5).
With `CC[C@H](C)[C@@H]1NC(=O)[C@@H]2CSSC[C@@H]3NC(=O)[C@H](C(C)C)NC(=O)[C@H](CC(C)C)NC(=O)[C@H](CC(N)=O)NC(=O)[C@@H]4CCCN4C(=O)[C@H](CCCNC(=N)N)NC(=O)[C@H](CSSC[C@H](NC(=O)[C@@H](N)CC(=O)O)C(=O)N[C@@H](CC(C)C)C(=O)NCC(=O)N[C@@H](Cc4ccccc4)C(=O)N[C@@H](CCSC)C(=O)N[C@@H](CCCNC(=N)N)C(=O)N[C@@H](CCCCN)C(=O)N2)NC(=O)[C@H](CSSC[C@@H](C(=O)N[C@@H](CCCCN)C(=O)N[C@@H](Cc2ccc(O)cc2)C(=O)N[C@H](C(N)=O)C(C)C)NC(=O)[C@H](Cc2c[nH]c4ccccc24)NC(=O)[C@H](CCCCN)NC(=O)[C@H](Cc2cnc[nH]2)NC(=O)[C@H]([C@@H](C)O)NC(=O)[C@H](CCCNC(=N)N)NC(=O)[C@H](CO)NC3=O)NC(=O)[C@H](CCCCN)NC(=O)[C@H](CC(=O)O)NC(=O)[C@H](CC(N)=O)NC(=O)[C@H](CC(=O)O)NC(=O)[C@@H]2CCCN2C1=O` [compound 415] (H-DCLGFMRKCIPDNDKCCRPNLVCSRTHKWCKYV-NH2; disulfide 2-17, 9-23, 16-30), the pIC50 is 5.89 at hNav1.3 (use-dependent, […]) and 4.96 on hNav1.5 (use-dependent, […]).
On to `CC[C@H](C)[C@@H]1NC(=O)[C@@H]2CSSC[C@@H]3NC(=O)[C@H](C(C)C)NC(=O)[C@H](CC(C)C)NC(=O)[C@H](CC(N)=O)NC(=O)[C@@H]4CCCN4C(=O)[C@H](CCCNC(=N)N)NC(=O)[C@H](CSSC[C@H](NC(=O)[C@H](C)N)C(=O)N[C@@H](CC(C)C)C(=O)NCC(=O)N[C@@H](Cc4ccccc4)C(=O)N[C@@H](CCSC)C(=O)N[C@@H](CCCNC(=N)N)C(=O)N[C@@H](CCCCN)C(=O)N2)NC(=O)[C@H](CSSC[C@@H](C(=O)N[C@@H](CCCCN)C(=O)N[C@@H](Cc2ccc(O)cc2)C(=O)N[C@H](C(=O)N[C@@H](Cc2ccccc2)C(N)=O)C(C)C)NC(=O)[C@H](Cc2c[nH]c4ccccc24)NC(=O)[C@H](CCCCN)NC(=O)[C@H](Cc2cnc[nH]2)NC(=O)[C@H]([C@@H](C)O)NC(=O)[C@H](CCCNC(=N)N)NC(=O)[C@H](CO)NC3=O)NC(=O)[C@H](CCCCN)NC(=O)[C@H](CC(=O)O)NC(=O)[C@H](CC(N)=O)NC(=O)[C@H](CC(=O)O)NC(=O)[C@@H]2CCCN2C1=O` [SEQ ID NO: 20] (H-ACLGFMRKCIPDNDKCCRPNLVCSRTHKWCKYVF-NH2; disulfide 2-17, 9-23, 16-30), for which the results for the pIC50 on hNav1.3 (setting [1]) and on hNav1.5 (setting [1]) were 7.10 and 5.01, respectively.
For the compound `CC[C@H](C)[C@@H]1NC(=O)[C@@H]2CSSC[C@@H]3NC(=O)[C@H](C(C)C)NC(=O)[C@H](CC(C)C)NC(=O)[C@H](CC(N)=O)NC(=O)[C@@H]4CCCN4C(=O)[C@H](CCCNC(=N)N)NC(=O)[C@H](CSSC[C@H](NC(=O)[C@@H](N)CC(=O)O)C(=O)N[C@@H](CC(C)C)C(=O)NCC(=O)N[C@@H](Cc4ccccc4)C(=O)N[C@@H](CCSC)C(=O)N[C@@H](CCCNC(=N)N)C(=O)N[C@@H](CCCCN)C(=O)N2)NC(=O)[C@H](CSSC[C@@H](C(=O)N[C@@H](CCCCN)C(=O)N[C@@H](Cc2ccc(O)cc2)C(=O)N[C@@H](CCCNC(=N)N)C(=O)N[C@@H](Cc2ccccc2)C(N)=O)NC(=O)[C@H](Cc2c[nH]c4ccccc24)NC(=O)[C@H](CCCCN)NC(=O)[C@H](Cc2cnc[nH]2)NC(=O)[C@H]([C@@H](C)O)NC(=O)[C@H](CCCNC(=N)N)NC(=O)[C@H](CO)NC3=O)NC(=O)[C@H](CCCCN)NC(=O)[C@H](CC(=O)O)NC(=O)[C@H](CC(N)=O)NC(=O)[C@H](CC(=O)O)NC(=O)[C@@H]2CCCN2C1=O` [compound 74] (H-DCLGFMRKCIPDNDKCCRPNLVCSRTHKWCKYRF-NH2; disulfide 2-17, 9-23, 16-30), the pIC50 on hNav1.3 (Table 26, use, […]) was 7.30; on hNav1.5 (Table 26, use, […]), 5.02.
As to `CC[C@H](C)[C@@H]1NC(=O)[C@@H]2CSSC[C@@H]3NC(=O)[C@H](C(C)C)NC(=O)[C@H](CC(C)C)NC(=O)[C@H](CC(N)=O)NC(=O)[C@@H]4CCCN4C(=O)[C@H](CCCNC(=N)N)NC(=O)[C@H](CSSC[C@H](NC(=O)[C@@H](N)CC(=O)O)C(=O)N[C@@H](CC(C)C)C(=O)N[C@@H](Cc4c[nH]c5ccccc45)C(=O)N[C@@H](Cc4ccccc4)C(=O)N[C@@H](CCSC)C(=O)N[C@@H](CCCNC(=N)N)C(=O)N[C@@H](CCCCN)C(=O)N2)NC(=O)[C@H](CSSC[C@@H](C(=O)N[C@@H](CCCCN)C(=O)N[C@@H](Cc2ccc(O)cc2)C(=O)N[C@H](C(=O)N[C@@H](Cc2ccccc2)C(N)=O)C(C)C)NC(=O)[C@H](Cc2c[nH]c4ccccc24)NC(=O)[C@H](CCCCN)NC(=O)[C@H](Cc2cnc[nH]2)NC(=O)[C@H]([C@@H](C)O)NC(=O)[C@H](CCCNC(=N)N)NC(=O)[C@H](CO)NC3=O)NC(=O)[C@H](CCCCN)NC(=O)[C@H](CC(=O)O)NC(=O)[C@H](CC(N)=O)NC(=O)[C@H](CC(=O)O)NC(=O)[C@@H]2CCCN2C1=O` [SEQ ID NO: 169] (H-DCLWFMRKCIPDNDKCCRPNLVCSRTHKWCKYVF-NH2; disulfide 2-17, 9-23, 16-30), the pIC50 at hNav1.3 (setting [1]) is 7.52; at hNav1.5 (setting [1]), 4.99.
In the case of `CC[C@H](C)[C@@H]1NC(=O)[C@@H]2CSSC[C@@H]3NC(=O)[C@H](C(C)C)NC(=O)[C@H](CC(C)C)NC(=O)[C@H](CC(N)=O)NC(=O)[C@H](CCCCN)NC(=O)[C@H](CCCNC(=N)N)NC(=O)[C@H](CSSC[C@H](NC(=O)[C@@H](N)CC(=O)O)C(=O)N[C@@H](CC(C)C)C(=O)NCC(=O)N[C@@H](Cc4ccccc4)C(=O)N[C@@H](CCSC)C(=O)N[C@@H](CCCNC(=N)N)C(=O)N[C@@H](CCCCN)C(=O)N2)NC(=O)[C@H](CSSC[C@@H](C(=O)N[C@@H](CCCCN)C(=O)N[C@@H](Cc2ccc(O)cc2)C(=O)N[C@H](C(=O)N[C@@H](Cc2ccccc2)C(N)=O)C(C)C)NC(=O)[C@H](Cc2c[nH]c4ccccc24)NC(=O)[C@H](CCCCN)NC(=O)[C@H](Cc2cnc[nH]2)NC(=O)[C@H]([C@@H](C)O)NC(=O)[C@H](CCCNC(=N)N)NC(=O)[C@H](CO)NC3=O)NC(=O)[C@H](CCCCN)NC(=O)[C@H](CC(=O)O)NC(=O)[C@H](CC(N)=O)NC(=O)[C@H](CC(=O)O)NC(=O)[C@@H]2CCCN2C1=O` [compound 50] (H-DCLGFMRKCIPDNDKCCRKNLVCSRTHKWCKYVF-NH2; disulfide 2-17, 9-23, 16-30), the results for the pIC50 on hNav1.3 (Use) and on hNav1.5 (Use) were 6.74 and 4.97, respectively.
As to `CC[C@H](C)[C@@H]1NC(=O)[C@@H]2CSSC[C@@H]3NC(=O)[C@H](C(C)C)NC(=O)[C@H](CC(C)C)NC(=O)[C@H](CCCNC(=N)N)NC(=O)[C@@H]4CCCN4C(=O)[C@H](CCCNC(=N)N)NC(=O)[C@H](CSSC[C@H](NC(=O)[C@@H](N)CC(=O)O)C(=O)N[C@@H](CC(C)C)C(=O)NCC(=O)N[C@@H](Cc4ccccc4)C(=O)N[C@@H](CCSC)C(=O)N[C@@H](CCCNC(=N)N)C(=O)N[C@@H](CCCCN)C(=O)N2)NC(=O)[C@H](CSSC[C@@H](C(=O)N[C@@H](CCCCN)C(=O)N[C@@H](Cc2ccc(O)cc2)C(=O)N[C@H](C(=O)N[C@@H](Cc2ccccc2)C(N)=O)C(C)C)NC(=O)[C@H](Cc2c[nH]c4ccccc24)NC(=O)[C@H](CCCCN)NC(=O)[C@H](Cc2cnc[nH]2)NC(=O)[C@H]([C@@H](C)O)NC(=O)[C@H](CCCNC(=N)N)NC(=O)[C@H](CO)NC3=O)NC(=O)[C@H](CCCCN)NC(=O)[C@H](CC(=O)O)NC(=O)[C@H](CC(N)=O)NC(=O)[C@H](CC(=O)O)NC(=O)[C@@H]2CCCN2C1=O` [compound 69] (H-DCLGFMRKCIPDNDKCCRPRLVCSRTHKWCKYVF-NH2; disulfide 2-17, 9-23, 16-30), the pIC50 at hNav1.3 (Use) was 7.10; at hNav1.5 (Use) it was 4.83.
